The results in this text go back to article PMC9295539 (Antimicrobial Agents and Chemotherapy, 2022).

Like-named read-outs stand apart in the source and are kept apart here. Bounds are passed on as bounds.

For data set [1], the system named is HEK293T cells. Briefly: in vitro. The method, then: (§1) Compounds were screened at 5 μM with metronidazole (40 μM) as an inhibitor control and dimethyl sulfoxide (DMSO) as a neutral control. […] These primary hits were immediately assayed for reconfirmation and mammalian cytotoxicity against HEK293T cells in an 8-point dose-response format.
(§2) Experimental details for the assays were described previously ([50]). […] Assays were performed as previously reported ([51]).
(§3) Relative luminescence unit (RLU) values were analyzed in Genedata Screener (v13.0-Standard). RLU values were normalized to neutral controls minus inhibitors (DMSO-treated wells minus metronidazole-treated wells). For single-point primary assay plates, an additional run-wise median correction was applied to reduce screen artifacts, whereas no corrections were applied to triplicate dose-response plates. For the mammalian cytotoxicity assays, RLU values were uploaded into Genedata Screener, and the data were normalized to those for DMSO-treated wells minus puromycin-treated wells.

Data set [2] relates to Giardia lamblia GS clone H7. Briefly: G. lamblia GS clone H7 trophozoite growth, ATP-based bioluminescence assay (BacTiter-Glo), 1,536-well. Type of data set: cell-based. The conditions noted are these: for Selectivity index (CC50/EC50): HEK293T CC50 / G. lamblia GS clone H7 EC50. The method, then:
as §1
The primary screen was conducted at 5 μM. […] All source plates were 384-well acoustic, transfer-compatible plates with compounds prediluted in DMSO at either 2 mM or 10 mM. […] Primary screening was done with a single replicate, whereas dose-response testing was carried out in triplicate.
To prevent attachment to the bottle and tubing of the dispenser cassette, the bottle containing the culture was kept on ice throughout the dispensing process. […] The bags were heat sealed and the anaerobic generator was activated according to the manufacturer’s instructions. […] Luminescence was read on a ViewLux uHTS microplate imager (PerkinElmer) with medium-sensitivity luminescence at 30 s of exposure.
as §3

Data set [3] is described as follows: HEK293T cytotoxicity counterscreen, luminescent ATP viability assay. The settings on record: human. The method, then: as §1, §2, §3
(In general: The purpose of a counterscreen is to sort out artefacts and off-target activity.)

In data set [4] the test system is G. lamblia CBG99 (assemblage A). Briefly: G. lamblia CBG99 luciferase strain cell growth inhibition assay. The settings on record: for inhibition at 5 µM / EC50: Giardia duodenalis; for inhibition at 5 µM / inhibition of G. lamblia growth: G. lamblia CBG99, compound at 5 μM; for EC50: assemblage A, read-out: EC50 against G. lamblia strain CBG99. Type of data set: cell-based, Giardia lamblia. The method, then: Subsequent assays, including the mouse model of infection, used the G. lamblia click beetle green (CBG99) strain, which was grown and assayed as previously described ([11], [49]).
In vitro reconfirmation and expanded tests against EGFR-TKIs using the G. lamblia CBG99 strain were performed as previously described ([11]). […] The PK studies were performed in groups of 3 mice per compound. […] All animal experiments were approved by the Institutional Animal Care and Use Committees at the University of Washington.

Data set [5] deals with metronidazole-resistant 713-M3 strain. The experiment in a line: Metronidazole-resistant G. lamblia 713-M3 cell growth inhibition assay. The conditions noted are these: Giardia duodenalis, read-out: EC50 against G. lamblia strain 713-M3. The format is cell-based.
In data set [6] the test system is G. lamblia WB6 (assemblage A). The experiment in a line: G. lamblia WB6 cell growth inhibition assay. The format is cell-based. The settings on record: Giardia duodenalis, read-out: EC50 against G. lamblia strain WB6.
Setting [7] is: 48 h, 8-point dose response, triplicate, read-out: 48-h Giardia GS clone H7 EC50.
The mark [8] stands for this setting: Giardia duodenalis, 48 h, 8-point dose response, triplicate, read-out: 48-h Giardia GS clone H7 EC50.
[9] abbreviates: Giardia duodenalis, Table 2, assemblage B, read-out: EC50 against G. lamblia strain GS clone 7.

As to `CCOC(=O)/C(=C/c1ncc([N+](=O)[O-])n1C)C(C)=O` [Propenidazole], the CC50 in data set [1] worked out at 16.9 ± 0.05 µM. For the same compound, in data set [2] (setting [7]), the EC50 (commonly the concentration at which the effect is half-maximal) is 2.55 ± 0.04 µM.

On to `Cc1ncc([N+](=O)[O-])n1CCc1ccncc1` [Panidazole], for which the CC50 at 72 h in data set [3] (HEK293T cells) was > 25 µM. Further, the EC50 in data set [2] (setting [8]) is 1.85 ± 0.68 µM. In addition, the “Selectivity index (CC50/EC50)” value in data set [2] was >14.

Take `O=C1NCCN1c1ncc([N+](=O)[O-])s1` [Niridazole]: the CC50 at 72 h in data set [3] was > 25 µM. In data set [2] (setting [8]), the concentration giving a half-maximal response (EC50) is 6.42 ± 0.06 µM. Besides, in data set [2], the “Selectivity index (CC50/EC50)” value is >4.

Take `C=CC(=O)Nc1cccc(Nc2nc(Nc3ccc(N4CCN(C(C)=O)CC4)cc3OC)ncc2C(F)(F)F)c1` [rociletinib]: in data set [4], the inhibition (as a rule, the relative decrease from the control value, in per cent) at 5 µM was ≤ 50%.

As for `CS(=O)(=O)Nc1ccc(C(=O)O[C@@H](Cc2c(Cl)c[n+]([O-])cc2Cl)c2ccc(OC(F)F)c(OCC3CC3)c2)cc1OCC1CC1` [CHF-6001], in data set [3] (HEK293T cells), the CC50 at 72 h is > 25 µM. For the same compound, the EC50 in data set [2] (setting [8]) came out at 2.03 ± 0.1 µM. Besides, the “Selectivity index (CC50/EC50)” value in data set [2] is listed as >12.

`COc1cc2ncnc(Nc3cccc(Cl)c3)c2cc1OC` [AG-1478]: the “inhibition of G. lamblia growth” value in data set [4] was ≤ 50%.

Consider `Cn1c([N+](=O)[O-])cnc1C(O)c1cc(C(C)(C)C)ccc1O` (stereo not shown) [Abunidazole], for which, in data set [1], the CC50 is > 25 µM. The EC50 in data set [2] (setting [7]) turned out to be 1.08 ± 0.02 µM.

Regarding `CN(C)C/C=C/C(=O)Nc1cc2c(Nc3ccc(F)c(Cl)c3)ncnc2cc1O[C@H]1CCOC1` [afatinib], the inhibition at 5 µM in data set [4] is ≤ 50%.

Consider `Cn1c([N+](=O)[O-])cnc1/C=N/N1CC(CN2CCOCC2)OC1=O` (stereo not shown) [Moxnidazole], for which the CC50 at 72 h in data set [3] (HEK293T cells) was > 25 µM. In data set [2] (setting [8]), the EC50 is 6.11 ± 0.11 µM. Besides, the “Selectivity index (CC50/EC50)” value in data set [2] is listed as >4.

`CNC(=O)CN1CCC(Oc2cc3c(Nc4cccc(Cl)c4F)ncnc3cc2OC)CC1` [AZD8931]: in data set [4], the inhibition at 5 µM was ≤ 50%.

Regarding `C#Cc1cccc(Nc2ncnc3cc(OCCOC)c(OCCOC)cc23)c1` [erlotinib], the inhibition at 5 µM in data set [4] was ≤ 50%.

As to `CS(=O)(=O)OCCN(CCBr)c1c(C(=O)NCCOP(=O)(O)O)cc([N+](=O)[O-])cc1[N+](=O)[O-]` [PR-104], the CC50 at 72 h in data set [3] was > 25 µM. Besides, in data set [2] (Giardia duodenalis, 48 h, read-out: 48-h Giardia GS clone H7 EC50), the EC50 is 1.98 ± 0.07 µM. In addition, the “Selectivity index (CC50/EC50)” value in data set [2] is recorded as >13.

On to `COc1cc2ncnc(Nc3cccc(Br)c3)c2cc1OC.Cl` [PD153035-HCl], for which the “inhibition of G. lamblia growth” value in data set [4] was ≤ 50%.

Regarding `Cn1c([N+](=O)[O-])cnc1N1CCN(S(C)(=O)=O)C1=O` [Satranidazole], the CC50 at 72 h in data set [3] (HEK293T cells) was > 25 µM. For the same compound, the EC50 in data set [2] (setting [8]) amounted to 2.49 ± 0.04 µM. The “Selectivity index (CC50/EC50)” value in data set [2] is on record as >10.

With `O=[N+]([O-])c1ccc(-c2nc3ccccc3[nH]2)o1` [2-(5-Nitro-2-furyl) benzimidazole], in data set [3] (HEK293T cells), the CC50 at 72 h was > 25 µM. The EC50 in data set [2] (setting [8]) was 5.8 ± 0.13 µM. Besides, the “Selectivity index (CC50/EC50)” value in data set [2] is reported as >4.

Consider `CCOc1cc2ncc(C#N)c(Nc3ccc(OCc4ccccn4)c(Cl)c3)c2cc1NC(=O)/C=C/CN(C)C` [neratinib], for which the inhibition at 5 µM in data set [4] is ≤ 50%.

Take `CC(=O)Nc1ncc([N+](=O)[O-])s1` [Aminitrozole]: in data set [3] (HEK293T cells), the CC50 at 72 h is > 25 µM. For the same compound, the EC50 in data set [2] (setting [8]) was determined as 7.11 ± 0.28 µM. Also, the “Selectivity index (CC50/EC50)” value in data set [2] is given as >3.

`CSc1ccc(OCc2ncc([N+](=O)[O-])n2C)cc1` [Fexinidazole]: in data set [3] (HEK293T cells), the CC50 at 72 h is > 25 µM. The EC50 in data set [2] (setting [8]) turned out to be 6.39 ± 0.16 µM. Further, the “Selectivity index (CC50/EC50)” value in data set [2] is given as >4.

For `C=CC(=O)Nc1ccc2ncnc(Nc3cccc(Br)c3)c2c1` [PD168393], the “inhibition of G. lamblia growth” value in data set [4] is reported as ≤ 50%.

`Cn1c([N+](=O)[O-])cnc1/C=C/c1ccnc(N)n1` [Azanidazole]: the CC50 at 72 h in data set [3] (HEK293T cells) is > 25 µM. In addition, the concentration for a half-maximal effect (EC50) in data set [2] (setting [8]) was found to be 0.72 ± 0.06 µM. Moreover, the “Selectivity index (CC50/EC50)” value in data set [2] is >35.

`COC(=S)NCCn1c([N+](=O)[O-])cnc1C` [Carnidazole]: the CC50 at 72 h in data set [3] (HEK293T cells) is > 25 µM. In data set [2] (setting [8]), the EC50 turned out to be 3.01 ± 0.06 µM. In addition, the “Selectivity index (CC50/EC50)” value in data set [2] is >8.

As to `Cc1ncc([N+](=O)[O-])n1CCO` [Metronidazole], the EC50 in data set [5] was > 25 µM; in data set [6] (assemblage A) it was 2.33 ± 0.06 µM; in data set [4], 2.87 ± 0.34 µM; in data set [2] (setting [8]), 7.12 ± 0.06 µM; in data set [2] (setting [9]), 7.12 ± 0.06 µM. The CC50 at 72 h in data set [3] is > 25 µM. In data set [2], the “Selectivity index (CC50/EC50)” value is listed as >3.

For `CS(=O)(=O)CCNCc1ccc(-c2ccc3ncnc(Nc4ccc(OCc5cccc(F)c5)c(Cl)c4)c3c2)o1` [lapatinib ditosylate], the inhibition at 5 µM in data set [4] was ≤ 50%.

For `N#C/C(=C\c1ccc(O)c(O)c1)C(=O)NCc1ccccc1` [AG-490], the “inhibition of G. lamblia growth” value in data set [4] is on record as ≤ 50%.

Regarding `N#CC(C#N)=Cc1ccc(O)c(O)c1` [AG-18], the “inhibition of G. lamblia growth” value in data set [4] is reported as ≤ 50%.

`Cc1ncc([N+](=O)[O-])n1CC(O)CCl` (stereo not shown) [Ornidazole]: the CC50 at 72 h in data set [3] is > 25 µM. Moreover, the EC50 in data set [2] (setting [8]) is 1.82 ± 0.04 µM. The “Selectivity index (CC50/EC50)” value in data set [2] is reported as >14.

In the case of `Cc1ncc([N+](=O)[O-])n1CCOC(=O)c1ccccc1` [Benzoyl metronidazole], the CC50 at 72 h in data set [3] (HEK293T cells) is > 25 µM. Also, the EC50 in data set [2] (setting [8]) amounted to 2.43 ± 0.23 µM. Besides, the “Selectivity index (CC50/EC50)” value in data set [2] is >10.

Turning to `CCS(=O)(=O)CCn1c([N+](=O)[O-])cnc1C` [Tinidazole], in data set [3], the CC50 at 72 h was > 25 µM. Besides, the EC50 in data set [2] (setting [8]) was 5.7 ± 0.08 µM. The “Selectivity index (CC50/EC50)” value in data set [2] was >4.

`CC(=O)Oc1ccccc1C(=O)Nc1ncc([N+](=O)[O-])s1` [Nitazoxanide]: the CC50 at 72 h in data set [3] (HEK293T cells) is > 25 µM. The EC50 in data set [2] (setting [8]) turned out to be 6.45 ± 0.11 µM. For the same compound, the “Selectivity index (CC50/EC50)” value in data set [2] is >4.

Take `CCCN(CCC)c1ccc(/N=N/c2ccccc2C(=O)O)cc1` [Propyl red]: in data set [3] (HEK293T cells), the CC50 at 72 h was > 25 µM. The EC50 in data set [2] (setting [8]) is 5.78 ± 0.07 µM. In data set [2], the “Selectivity index (CC50/EC50)” value is reported as >4.

Regarding `C=CC(=O)Nc1cccc(Oc2nc(Nc3ccc(N4CCN(C)CC4)c(F)c3)nc3[nH]ccc23)c1.O=C(O)/C=C\C(=O)O` [avitinib maleate], the “inhibition of G. lamblia growth” value in data set [4] is listed as ≤ 50%.

Take `CC(=O)C[C@H]1CCCCN1` [Pelletierine]: the EC50 in data set [5] is > 25 µM; in data set [6], > 25 µM; in data set [4], > 25 µM; in data set [2] (setting [8]), 20.3 ± 0.07 µM; in data set [2] (setting [9]) it was 20.3 ± 0.07 µM. Besides, the CC50 in data set [3] is > 25 µM. The “Selectivity index (CC50/EC50)” value in data set [2] was >1.

For the compound `Cc1ncc([N+](=O)[O-])n1CC(C)O` (stereo not shown) [Secnidazole], in data set [3], the CC50 at 72 h was > 25 µM. Besides, the EC50 in data set [2] (setting [8]) worked out at 6.57 ± 0.09 µM. Besides, the “Selectivity index (CC50/EC50)” value in data set [2] is on record as >4.

Consider `COc1cc2ncnc(Nc3ccc(F)c(Cl)c3)c2cc1NC(=O)/C=C/CN1CCCCC1` [dacomitinib], for which the inhibition at 5 µM in data set [4] was ≤ 50%.
